Reference: patent US20140045807A2, “THE USE OF 3-METHOXY-PREGNENOLONE FOR THE PREPARATION OF A DRUG FOR TREATING A TRAUMATIC BRAIN INJURY” (priority 2004, published 2014)

Legend:
[1] = Pharmacokinetics, GC/MS assay in brain and spinal cord; assay type: in vivo, rat; conditions: rats, 12 mg/kg subcutaneous in sesame oil; 1, 4, 8, 24 hours
Method: FIG. 9: Kinetics of the appearance of 3-methoxy-PREG (43B) in rat brain and spinal cord following subcutaneous injection of 43B (12 mg/kg) in a sesame oil solution.
The pharmacokinetics of the molecules tested in vivo are evaluated using gas chromatography/mass spectrometry (GC/MS) assays.

[2] = target: Androgen Receptor (AR) (Rattus norvegicus, UniProt P15207); assay: Radioligand binding assay, AR; conditions: MAP4343 10 μM; 1.5 nM [^3H] Mibolerone; Rat recombinant E. coli
Method: (§1) Binding affinity of 3-methoxy-PREG (MAP4343) for receptors of steroid hormones was evaluated using radioligand binding assays.

[3] = tested on: PSD95; assay: Western blot of PSD95 in cortex and hippocampus after CCI; assay type: in vivo, rat; conditions: 20 mg/kg, first injection 2 h post-trauma, day 35, ipsilateral injured cortex and hippocampus, contralateral cortex
Method: FIG. 20: PSD-95 expression, 35 days after TBI, in the left-uninjured and right-injured hemispheres (A: cortex and B: hippocampus) of CCI-injured animals, receiving either vehicle (D0) or MAP4343 (D1: 10 mg/kg and D2:20 mg/kg), 2 h after injury.
Samples were analyzed by Western-blot at day 35 post-trauma (D35) to evaluate the effects of MAP4343 on: MAP2 (the target of MAP4343 and a modulator of microtubule function), the post-synaptic markers PSD95 and spinophilin, the pre-synaptic marker synaptophysin, and the axonal growth/integrity marker GAP43.
Western blot was performed on cortex and hippocampus of TBI-injured animals receiving the first injection of MAP4343 (at 10 mg/kg or 20 mg/kg) or vehicle (sesame oil) 2 h after injury.
The expression level of various neuronal brain markers of plasticity was measured at day 35 post-trauma by western-blots in the cortex and hippocampus of left uninjured and right injured cerebral hemispheres of CCI traumatized animals receiving either vehicle (sesame oil, CCI-D0) or 3-methoxy-PREG (MAP4343) at 10 mg/kg (CCI-D1) or 20 mg/kg (CCI-D2), with first MAP4343 injection 2 h post-trauma.

[4] = tested on: PC12 cell line; assay: Cellular toxicity test; assay type: cell-based, rat; conditions: concentrations as high as solubility limits (approximately 50 μM)
Method: Cellular toxicity tests are carried out routinely on the PC12 cell line.

[5] = tested on: spinal cord compression in rats; assay: Spinal cord compression model, locomotor recovery (BBB score); assay type: in vivo, rat; conditions: 12 mg/kg/day subcutaneous for 2 weeks; as of post-operation day 7
Method: FIG. 7: Effect of molecule 43B on locomotor recovery following spinal cord compression in rats. Animal locomotion was evaluated in a blind format during the 1-28 day post-operative period using the BBB score which evaluates the degree of paralysis (higher values correspond to better recovery). Statistical significance: * indicates p<0.001; ** indicates p<0.0001.
To determine the neuroprotective effects of the molecules tested, a spinal cord compression model is used. This model involves the total paralysis of the animals in the first few days following the operation. This period of paralysis is followed of a phase of approximately three weeks during which the animals partially recover their motor function. The study of this recovery using a simple and precise functional test based on observation of the animals (the BBB score) makes it possible to study the speed and the degree of recovery of the animals, with and without treatment.
Two groups of rats were subjected to spinal cord compression. Then, daily for 2 weeks, the animals received a subcutaneous injection containing either sesame oil alone (control group, n=20), or sesame oil containing molecule 43B (43B group, n=20; 12 mg/kg/day). The first injection was given minutes after spinal cord compression. Locomotion of the animals, using BBB scores, was evaluated in a blind format on post-operation days 1, 4, 7, 14, 21, and 28. […]

[6] = tested on: transgenic mice expressing the longest human tau protein isoform; assay: RotaRod test in transgenic mice expressing the longest human tau protein isoform; assay type: in vivo, mouse; conditions: subcutaneous implant releasing 0.38 mg of steroid per day for 90 days
Text: FIG. 8: Effect of molecule 43B on the motor incoordination of transgenic mice expressing the longest isoform of human tau protein in their neurons. […] The maximum speed of rotation of the RotaRod drum before the […] falls is a measurement of motor coordination (higher values correspond to a better treatment effect).
In order to evaluate the therapeutic potential of 43B to treat Alzheimer-type neurodegenerative diseases, a homozygous transgenic line of mice, such as described by Götz (EMBO J. 1995; 14(7):1304-13), can be used.
These mice express the longest human tau protein isoform. They present symptoms of neurological dysfunction expressed as muscular weakness and a reduction in motor coordination which correlate histologically with the appearance of abnormal neurites and hyperphosphorylated tau proteins as is seen in Alzheimer's disease. This pathological phosphorylation decreases the affinity of tau for microtubules and favors its aggregation.
A breeding program was undertaken at Bicêtre and genotyping made it possible to select mice homozygous for the transgene. […] These implants released 0.38 mg of steroid per day for 90 days. The progression of motor incoordination was followed by repeated RotaRod tests.

[7] = tested on: 80 different CNS neurotransmitters receptors; assay: Screen for in vitro affinity to 80 different CNS neurotransmitters receptors; assay type: binding
Text: MAP4343 has been screened for in vitro affinity to 80 different CNS neurotransmitters receptors using various validated binding assays.

[8] = target: Mineralocorticoid Receptor (MR) (Rattus norvegicus, UniProt P22199); assay: Radioligand binding assay, MR; conditions: MAP4343 10 μM; 4.5 nM [^3H] D-Aldosterone; Wistar Rat kidney
Method: as §1

[9] = target: purified tubulin and MAP2 (Homo sapiens, UniProt P11137); assay: MAP2-induced polymerization of microtubules in vitro (optical density at 345 nm); assay type: biochemical
Method: Purified MAP2 and tubulin are mixed in the presence of GTP at 4° C. in a spectrophotometer cuvette. Polymerization is induced by heating at 37° C. and is followed by the increase in optical density (OD) which indicates the quantity of polymers formed.
This in vitro test measures the effect of molecules on the MAP2-induced polymerization of microtubules. This polymerization occurs when MAP2 proteins and tubulin are mixed at adequate concentrations in the presence of GTP. It is accompanied by an increase in optical density measured at 345 nm for 15 to 30 minutes with a UNICON spectrophotometer thermostated at 37° C. (FIG. 1).
Activity is measured by the increase in optical density at 345 nm of a mixture of purified tubulin and MAP2, incubated at 37° C. in the presence of GTP.

[10] = 40 μM, compared to control kinetics with solvent alone

Sequence of purified tubulin and MAP2 (P11137 whole entry): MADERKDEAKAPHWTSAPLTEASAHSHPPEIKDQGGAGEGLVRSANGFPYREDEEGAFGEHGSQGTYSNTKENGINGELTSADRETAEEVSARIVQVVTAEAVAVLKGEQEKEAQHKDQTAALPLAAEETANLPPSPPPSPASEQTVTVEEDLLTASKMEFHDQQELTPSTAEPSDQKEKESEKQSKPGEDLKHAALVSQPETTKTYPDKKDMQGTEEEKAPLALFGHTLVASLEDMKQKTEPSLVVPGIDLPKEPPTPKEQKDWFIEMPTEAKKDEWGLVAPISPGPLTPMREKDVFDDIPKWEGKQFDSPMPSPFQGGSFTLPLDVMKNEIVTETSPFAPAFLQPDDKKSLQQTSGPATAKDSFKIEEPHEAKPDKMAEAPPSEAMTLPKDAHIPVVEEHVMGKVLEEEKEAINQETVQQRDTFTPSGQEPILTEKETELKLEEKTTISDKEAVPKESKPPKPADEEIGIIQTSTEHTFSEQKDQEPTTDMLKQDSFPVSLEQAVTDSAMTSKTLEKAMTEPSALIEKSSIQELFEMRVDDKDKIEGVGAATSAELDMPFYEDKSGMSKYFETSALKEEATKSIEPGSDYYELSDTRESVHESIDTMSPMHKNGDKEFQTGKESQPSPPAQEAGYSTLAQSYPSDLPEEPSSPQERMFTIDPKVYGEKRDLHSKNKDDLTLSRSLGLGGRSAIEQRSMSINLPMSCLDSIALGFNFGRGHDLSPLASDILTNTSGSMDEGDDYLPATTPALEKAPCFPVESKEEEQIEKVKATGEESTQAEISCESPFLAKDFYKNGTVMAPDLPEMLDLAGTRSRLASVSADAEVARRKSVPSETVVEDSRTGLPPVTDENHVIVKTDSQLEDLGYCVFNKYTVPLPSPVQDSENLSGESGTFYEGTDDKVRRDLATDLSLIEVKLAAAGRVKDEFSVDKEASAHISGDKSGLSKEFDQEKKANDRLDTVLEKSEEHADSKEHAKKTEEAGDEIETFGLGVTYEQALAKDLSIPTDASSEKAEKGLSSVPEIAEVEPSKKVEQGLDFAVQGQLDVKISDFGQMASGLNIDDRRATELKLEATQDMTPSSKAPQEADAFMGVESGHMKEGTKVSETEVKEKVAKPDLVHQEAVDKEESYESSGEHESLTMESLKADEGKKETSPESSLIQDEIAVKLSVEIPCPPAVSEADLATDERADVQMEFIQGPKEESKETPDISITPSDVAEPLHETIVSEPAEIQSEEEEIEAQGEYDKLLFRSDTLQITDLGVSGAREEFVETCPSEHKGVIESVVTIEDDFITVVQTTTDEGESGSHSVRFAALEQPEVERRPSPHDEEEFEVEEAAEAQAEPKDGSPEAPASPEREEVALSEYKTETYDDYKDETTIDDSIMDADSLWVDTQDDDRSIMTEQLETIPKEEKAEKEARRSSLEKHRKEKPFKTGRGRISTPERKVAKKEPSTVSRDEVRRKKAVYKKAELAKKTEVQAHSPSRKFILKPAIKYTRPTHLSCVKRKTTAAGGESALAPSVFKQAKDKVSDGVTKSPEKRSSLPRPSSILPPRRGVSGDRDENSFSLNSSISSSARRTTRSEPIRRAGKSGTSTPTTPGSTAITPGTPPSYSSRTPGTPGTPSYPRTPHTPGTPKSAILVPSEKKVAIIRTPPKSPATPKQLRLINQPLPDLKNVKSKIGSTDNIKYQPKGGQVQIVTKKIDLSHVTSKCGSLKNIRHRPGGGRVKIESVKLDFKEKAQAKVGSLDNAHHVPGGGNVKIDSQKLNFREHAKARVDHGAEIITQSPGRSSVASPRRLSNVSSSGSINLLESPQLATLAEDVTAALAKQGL
Sequence of Androgen Receptor (AR) (P15207 whole entry S389L): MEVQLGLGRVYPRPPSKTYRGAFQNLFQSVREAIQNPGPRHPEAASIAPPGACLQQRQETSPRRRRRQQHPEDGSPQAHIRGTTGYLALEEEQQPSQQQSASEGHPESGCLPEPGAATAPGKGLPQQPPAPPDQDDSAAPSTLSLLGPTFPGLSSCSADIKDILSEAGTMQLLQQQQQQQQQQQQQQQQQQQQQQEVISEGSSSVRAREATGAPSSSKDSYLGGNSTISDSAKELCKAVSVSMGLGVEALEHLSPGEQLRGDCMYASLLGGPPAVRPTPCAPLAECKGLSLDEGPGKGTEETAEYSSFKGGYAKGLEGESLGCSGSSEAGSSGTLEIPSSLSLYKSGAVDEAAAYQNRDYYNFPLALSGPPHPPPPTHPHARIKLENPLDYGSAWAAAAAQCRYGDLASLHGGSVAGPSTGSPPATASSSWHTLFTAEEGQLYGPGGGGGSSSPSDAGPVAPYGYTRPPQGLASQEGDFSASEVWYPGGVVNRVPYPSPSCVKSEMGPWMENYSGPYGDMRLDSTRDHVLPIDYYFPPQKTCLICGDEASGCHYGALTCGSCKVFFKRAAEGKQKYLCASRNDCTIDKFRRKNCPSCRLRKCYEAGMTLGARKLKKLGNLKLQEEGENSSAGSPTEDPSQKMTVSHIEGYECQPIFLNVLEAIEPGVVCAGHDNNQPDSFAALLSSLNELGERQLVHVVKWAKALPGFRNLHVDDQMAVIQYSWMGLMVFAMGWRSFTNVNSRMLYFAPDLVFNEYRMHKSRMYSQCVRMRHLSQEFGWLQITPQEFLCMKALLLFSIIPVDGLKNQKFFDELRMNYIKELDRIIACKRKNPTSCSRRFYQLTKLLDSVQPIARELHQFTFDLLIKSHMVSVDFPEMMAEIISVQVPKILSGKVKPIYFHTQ
Sequence of Mineralocorticoid Receptor (MR) (P22199 whole entry): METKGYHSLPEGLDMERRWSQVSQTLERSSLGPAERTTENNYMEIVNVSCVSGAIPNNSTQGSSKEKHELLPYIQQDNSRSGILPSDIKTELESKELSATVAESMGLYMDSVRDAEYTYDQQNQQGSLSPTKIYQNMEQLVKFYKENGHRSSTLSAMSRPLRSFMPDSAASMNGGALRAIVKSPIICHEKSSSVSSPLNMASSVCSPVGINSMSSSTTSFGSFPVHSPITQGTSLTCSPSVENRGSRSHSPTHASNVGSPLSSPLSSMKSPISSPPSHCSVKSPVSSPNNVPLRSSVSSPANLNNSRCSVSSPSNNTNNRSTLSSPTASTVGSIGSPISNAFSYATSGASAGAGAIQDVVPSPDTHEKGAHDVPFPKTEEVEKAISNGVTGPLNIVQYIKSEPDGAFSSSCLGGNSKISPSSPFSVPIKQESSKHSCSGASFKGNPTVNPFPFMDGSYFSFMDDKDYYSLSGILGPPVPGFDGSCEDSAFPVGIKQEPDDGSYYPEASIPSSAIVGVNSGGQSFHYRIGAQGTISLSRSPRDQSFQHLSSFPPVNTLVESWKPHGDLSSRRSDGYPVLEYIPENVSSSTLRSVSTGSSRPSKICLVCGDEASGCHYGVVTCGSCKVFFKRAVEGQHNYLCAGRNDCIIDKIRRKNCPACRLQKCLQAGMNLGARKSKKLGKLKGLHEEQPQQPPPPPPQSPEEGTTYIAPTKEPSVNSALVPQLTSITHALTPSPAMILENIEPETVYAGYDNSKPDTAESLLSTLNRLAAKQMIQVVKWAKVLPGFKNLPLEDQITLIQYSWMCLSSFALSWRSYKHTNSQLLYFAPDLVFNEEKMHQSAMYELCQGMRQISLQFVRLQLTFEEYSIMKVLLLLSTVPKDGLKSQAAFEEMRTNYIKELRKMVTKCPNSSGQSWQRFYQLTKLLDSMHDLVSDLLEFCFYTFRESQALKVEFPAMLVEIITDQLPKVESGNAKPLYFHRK

CO[C@H]1CC[C@@]2(C)C(=CC[C@H]3[C@@H]4CC[C@H](C(C)=O)[C@@]4(C)CC[C@@H]32)C1 [3-methoxy-PREG, 3β-methoxy-pregna-5-ene-20-one]
penetration into spinal cord and brain [1]: penetrates rapidly into the spinal cord and the brain | % inhibition of specific binding [2]: < 25% | PSD95 expression [3]: increase in PSD95 expression | cellular toxicity [4]: do not demonstrate toxicity | BBB score (locomotion) [5]: quite significantly higher than the control animals | motor dysfunction (RotaRod) [6]: beneficial effect on motor dysfunction | affinity for any tested receptor [7]: no significant affinity | % inhibition of specific binding [8]: < 25% | Lag time of microtubule polymerization [9, 10]: decreased | polymerization rate and quantity of microtubules [9, 10]: clearly increase | effect on microtubule polymerization ([9]; MAP2 and tubulin with GTP, 37° C.): activates microtubule polymerization | Activity (increase in optical density at 345 nm) ([9]; purified tubulin and MAP2, 37° C., GTP): 100% of PREG
